Measurements reported in patent US20260076973A1 (priority 2023, published 2026).
Where two headings read alike, the source gives them in different places. Where a SMILES comes first, the peptide text is derived from it.

What was measured:
[1] = tested on: VeroE6 cells; assay: Cytotoxicity counter screen in Vero E6 cells (Cell Titer-Glo); conditions: read-out: Cytotoxicity CC50; reference compounds, Vero E6 cells, 72 hours
[2] = tested on: SARS-CoV-2 (WA1); assay: microbe, parasite or virus in culture; format: cell-based
[3] = Cytotoxicity counter screen in Vero E6 cells (Cell Titer-Glo); conditions: African green monkey
[4] = tested on: OC43 virus; assay: OC43 coronavirus infection assay in Huh7.5 cells; format: cell-based; conditions: read-out: OC43 IC50
[5] = tested on: 229E virus; assay: 229E coronavirus infection assay in Huh7.5 cells; format: cell-based; conditions: read-out: 229E IC50
[6] = tested on: SARS CoV-2 nanoluciferase reporter virus (NLRV); assay: microbe, parasite or virus in culture; format: cell-based; conditions: Severe acute respiratory syndrome coronavirus 2, A549-ACE2, 72 h

For CC(C)C[C@H](NC(=O)OCc1ccccc1)C(=O)N[C@@H](CC(C)C)C(=O)N[C@@H](Cc1ccc(O)cc1)C(=O)CF [Calpain Inhibitor IV, reference compound] (HELM PEPTIDE1{[O=C(OCc1ccccc1)[*:2]].L.L.Y.[FC[*:1]]}$$$$V2.0), the CC50 [1] was over 7170 nM, the “antiviral effect of positive controls in the CPE assay” value ([2]; SARS-CoV-2 CPE assay) was “dose dependent antiviral effect” and the IC50 ([2]; reference compounds, SARS-CoV-2 (WA1) CPE assay, Round 2, Vero E6, 72 hours, read-out: Antiviral IC50) was 240 nM.
CCC(CC)COC(=O)[C@H](C)N[P@](=O)(OC[C@H]1O[C@@](C#N)(c2ccc3c(N)ncnn23)[C@H](O)[C@@H]1O)Oc1ccccc1 [Remdesivir, reference compound] showed a CC50 at 72 h [3] of over 30000 nM, an IC50 ([4]; Betacoronavirus 1, OC43, Huh7.5, 72 h) of 9.7 nM and an IC50 ([2]; Severe acute respiratory syndrome coronavirus 2, Vero C1008) of 7000 to 10000 nM. For the same compound, the IC50 ([2]; Severe acute respiratory syndrome coronavirus 2, Vero C1008, 72 h, read-out: Antiviral IC50) was 10800 nM, the “Selectivity Index (CC50/IC50)” value ([2]; reference compounds, Round 2) was over 2.8 and the IC50 ([5]; Huh7.5, 48 h) was 13 nM.
In the case of CC(=O)Nc1ccc(Nc2nc(Nc3ccc(Cl)cc3)nc(N3CCOCC3)n2)cc1 [VIRADEM-11847, N-{4-[4-(4-Chlorophenylamino)-6-morpholin-4-yl-[1,3,5]triazin-2-ylamino]-phenyl}-acetamide], the IC50 ([4]; Betacoronavirus 1, OC43, 72 h, Huh7.5 cells, fixed 3 days after infection) is reported as 992 nM, the IC50 [6] is reported as 32 nM and the IC90 [6] is reported as 41 nM. For the same compound, the IC50 ([2]; Severe acute respiratory syndrome coronavirus 2, Vero C1008, VIRADEM compounds, SARS-CoV-2(WA1) CPE assay, Round 2, concentration range 1000-0.05 nM, Vero E6, read-out: IC50) was 20 nM and the IC50 ([5]; 48 h, Huh7.5 cells, fixed 2 days after infection) was 138 nM.
